Experimental data reported in PMC5739597, “Discovery and evaluation of triple inhibitors of VEGFR-2, TIE-2 and EphB4 as anti-angiogenic and anti-cancer agents” (Oncotarget, 2017).
Values joined by “and” are separate entries in the source; they are usually repeats but may differ in a detail not shown here. Equal entries are not always repeated.

Tests used:
VEGFR-1 = VEGFR-1 (Homo sapiens, UniProt P17948); test: Kinase-Glo Plus RTK selectivity assay, VEGFR-1; assay type: biochemical; settings: 10 μM ATP
Experimental: (§1) A 50 μL reaction mixture contains 40 mM Tris, pH 7.4, 10 mM MgCl2, 0.1 mg/ml BSA, 1 mM DTT, 10 μM ATP, kinase and substrate (0.2 mg/mL Poly(Glu, Tyr)/10 μM ATP). The test compounds were diluted in 10% DMSO and 5 μL of the dilution was added to a 50 μL reaction so that the final concentration of DMSO is 1% in all of reactions. The assay was performed using Kinase-Glo Plus luminescence kinase assay kit. It measures kinase activity by quantitating the amount of ATP remaining in solution following a kinase reaction. The luminescent signal from the assay is correlated with the amount of ATP present and is inversely correlated with the amount of kinase activity. The IC50 values were calculated using nonlinear regression with normalized dose−response fit using Prism GraphPad software.

[1] = system: human pancreatic cancerous cell lines (PANC-1); test: Anti-proliferative MTT assay, PANC-1; assay type: cell-based; settings: 48 h
Experimental: (§2) These RTKs play critical roles in the proliferation of various cancers. Therefore, RTKs inhibition generally translate well into anti-proliferation activity.
(§3) Exponentially growing cells were harvested and plated in 96-well plates at a concentration of 1×10^4 cells/well per well, and then were incubated at 37°C for 24 h. […] Subsequently, 22 μL fresh MTT (5 mg/mL) was added to each well and incubated at 37°C for 4 h. […] DMSO was added to each well after supernatant was discarded. Absorbance values were determined by a microplate reader (Bio-Rad Instruments) at 490 nm. The IC50 values were calculated according to inhibition ratios.

VEGFR-2 [2] = molecular target: T1, VEGFR-2 (Homo sapiens, UniProt P35968); test: VEGFR-2/cell membrane chromatography (CMC) affinity evaluation; assay type: binding
Experimental: In previous studies, artificial cultures highly expressing VEGFR-2 on HEK293 cell lines were constructed. […] Chromatographic conditions: 10 mm×2.0 mm; flow rate0.6 mL/min; column temperature 37°C; mobile phase 5 mM PBS, pH 7.4; detection wavelength 270 nm.
The VEGFR-2 cell membrane stationary phase was prepared as previous reported. Aqueous ammonium acetate buffer solution (pH 7.4, 5 mM) was pumped at a flow rate of 0.2 mL/min as the mobile phase after VEGFR-2/CMC column was loaded onto the chromatography system at the temperature of 37°C. […] The mobile phase was 5.0 mM phosphate burred saline with a 0.6 mL/min flow rate at a column temperature of 37°C. The detected wavelength was 270 nm. The test compound was injected into the VEGFR-2/CMC column and their retention characteristics were identified to evaluate their affinity with VEGFR-2.

[3] = system: human colon carcinoma cell line (LOVO); test: Anti-proliferative MTT assay, LOVO; assay type: cell-based; settings: 48 h
Experimental: as §2, §3

[4] = system: human lung cancer cell (A549); test: Anti-proliferative MTT assay, A549; assay type: cell-based; settings: 48 h
Experimental: as §2, §3

[5] = system: normal human liver cells (QSG7701); test: Cytotoxicity on normal cells, QSG7701; assay type: cell-based; settings: MTT, 48 h, read-out: Anti-proliferative activity IC50, QSG7701 (normal cells)
Experimental: (§4) In order to determine the anti-angiogenic effect of these multi-target inhibitors, we evaluated their effect on HECs (EA.hy926) viability using cell counting kit-8 (CCK-8) method.
as §2, §3

MCF-7 xenograft = test: In vivo MCF-7 xenograft mice model; settings: ig; for Final body weight / Tumor growth inhibition / Final tumor weight: 21 days; for Final tumor weight: control 0.848±0.5; for Initial body weight: before treatment
Experimental: Six-week old female BALB/c mice were purchased from Shanghai Laboratory Animal center of the Chinese Academy of Sciences and housed under aseptic and ventilated condition. The mice were inoculated by subcutaneous injection with MCF-7 cancer cells suspended in 5% saline. Tumor volume and weight were measured on alternate days. Body weights were monitored as an indicator of toxicity. […] Treatment started from the next day and continued for 21 days. All mice were killed at the end of the experiment, and subcutaneous tumors were removed and weighted.

[6] = system: human epidermoid carcinoma cell line (A431); test: Anti-proliferative MTT assay, A431; assay type: cell-based; settings: A-431, 48 h
Experimental: as §2, §3

c-Kit = c-Kit (Homo sapiens, UniProt P10721); test: Kinase-Glo Plus RTK selectivity assay, c-Kit; assay type: biochemical; settings: 10 μM ATP
Experimental: as §1

VEGFR-2 [7] = molecular target: T1, VEGFR-2; test: ADP-Glo in vitro RTK inhibition assay, VEGFR-2; assay type: biochemical; settings: ATP 50 μM
Experimental: (§5) In order to validate the direct effect of title compounds on VEGFR-2, Tie-2, and EphB4 kinases, we performed in vitro assay using the ADP-Glo Kinase Assay Kit (Promega, Wisconsin, USA).
(§6) The kinase assay was performed in a reaction mixture of final volume of 10 μL. […] The plate was incubated at 30°C for 1 h. After the plate was cooled at room temperature for 5 min, 5 μL of ADP-Glo reagent was added into each well to stop the reaction and consume the remaining […] within 40 min. At the end, 10 μL of kinase detection reagent was added into the well and incubated for 30 min to produce a luminescence signal. […] The assay plate was incubated at 30°C for 4 h. After the plate was cooled at room temperature for 5 min, 5 μL of ADP-Glo reagent was added into each well to stop the reaction and consume the remaining […] within 1 h. At the end, 10 μL of kinase detection reagent was added into each well and incubated for 30 min to produce a luminescence signal. The luminescence was read by VICTOR-X multi-label plate reader.

TIE-2 = TIE-2 (Homo sapiens, UniProt Q02763); test: ADP-Glo in vitro RTK inhibition assay, TIE-2; assay type: biochemical; settings: ATP 50 μM
Experimental: as §5, §6

B-Raf = B-Raf (Homo sapiens, UniProt P15056); test: Kinase-Glo Plus RTK selectivity assay, B-Raf; assay type: biochemical; settings: 10 μM ATP
Experimental: as §1

[8] = system: human hepatic cancer cell lines (7721); test: Anti-proliferative MTT assay, 7721; assay type: cell-based; settings: 48 h
Experimental: as §2, §3

[9] = system: human embryonic kidney 293 (HEK293); test: Cytotoxicity on normal cells, HEK293; assay type: cell-based; settings: MTT, 48 h, read-out: Anti-proliferative activity IC50, HEK293 (normal cells)
Experimental: as §4, §2, §3

T1 sequence (P35968 20-1356): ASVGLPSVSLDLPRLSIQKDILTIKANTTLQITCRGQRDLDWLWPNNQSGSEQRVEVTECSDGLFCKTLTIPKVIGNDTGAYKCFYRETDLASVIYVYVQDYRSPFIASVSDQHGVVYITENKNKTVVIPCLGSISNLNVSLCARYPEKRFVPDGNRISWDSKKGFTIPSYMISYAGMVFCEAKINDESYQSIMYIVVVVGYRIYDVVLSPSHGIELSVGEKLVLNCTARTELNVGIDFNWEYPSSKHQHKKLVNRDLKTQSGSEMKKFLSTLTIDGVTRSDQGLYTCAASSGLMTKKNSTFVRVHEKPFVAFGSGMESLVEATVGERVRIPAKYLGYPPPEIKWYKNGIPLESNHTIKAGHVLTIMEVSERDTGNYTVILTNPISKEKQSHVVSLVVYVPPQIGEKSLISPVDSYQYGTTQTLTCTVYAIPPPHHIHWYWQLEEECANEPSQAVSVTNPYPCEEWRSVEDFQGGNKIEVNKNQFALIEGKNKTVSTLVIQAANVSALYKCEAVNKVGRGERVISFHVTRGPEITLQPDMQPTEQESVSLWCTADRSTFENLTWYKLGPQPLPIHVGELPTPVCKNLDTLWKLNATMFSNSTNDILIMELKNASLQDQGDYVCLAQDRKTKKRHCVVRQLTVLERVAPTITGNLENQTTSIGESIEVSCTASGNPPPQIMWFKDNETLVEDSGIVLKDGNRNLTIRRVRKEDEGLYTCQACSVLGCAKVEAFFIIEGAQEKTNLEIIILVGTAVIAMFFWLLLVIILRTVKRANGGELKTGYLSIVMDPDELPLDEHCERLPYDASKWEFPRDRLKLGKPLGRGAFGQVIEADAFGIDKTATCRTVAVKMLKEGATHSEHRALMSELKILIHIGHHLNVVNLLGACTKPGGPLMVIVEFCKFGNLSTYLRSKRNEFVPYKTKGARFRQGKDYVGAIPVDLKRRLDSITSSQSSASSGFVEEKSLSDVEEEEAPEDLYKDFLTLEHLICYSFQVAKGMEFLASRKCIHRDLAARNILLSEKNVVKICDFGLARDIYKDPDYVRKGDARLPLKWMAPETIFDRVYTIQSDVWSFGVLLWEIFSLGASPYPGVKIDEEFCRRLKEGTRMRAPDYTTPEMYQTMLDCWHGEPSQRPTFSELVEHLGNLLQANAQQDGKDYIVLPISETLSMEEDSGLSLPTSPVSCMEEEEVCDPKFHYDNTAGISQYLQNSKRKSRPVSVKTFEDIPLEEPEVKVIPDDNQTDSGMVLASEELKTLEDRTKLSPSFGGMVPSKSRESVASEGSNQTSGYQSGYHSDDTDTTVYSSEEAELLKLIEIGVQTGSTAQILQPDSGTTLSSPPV
Sequence of B-Raf (P15056 whole entry, species assumed): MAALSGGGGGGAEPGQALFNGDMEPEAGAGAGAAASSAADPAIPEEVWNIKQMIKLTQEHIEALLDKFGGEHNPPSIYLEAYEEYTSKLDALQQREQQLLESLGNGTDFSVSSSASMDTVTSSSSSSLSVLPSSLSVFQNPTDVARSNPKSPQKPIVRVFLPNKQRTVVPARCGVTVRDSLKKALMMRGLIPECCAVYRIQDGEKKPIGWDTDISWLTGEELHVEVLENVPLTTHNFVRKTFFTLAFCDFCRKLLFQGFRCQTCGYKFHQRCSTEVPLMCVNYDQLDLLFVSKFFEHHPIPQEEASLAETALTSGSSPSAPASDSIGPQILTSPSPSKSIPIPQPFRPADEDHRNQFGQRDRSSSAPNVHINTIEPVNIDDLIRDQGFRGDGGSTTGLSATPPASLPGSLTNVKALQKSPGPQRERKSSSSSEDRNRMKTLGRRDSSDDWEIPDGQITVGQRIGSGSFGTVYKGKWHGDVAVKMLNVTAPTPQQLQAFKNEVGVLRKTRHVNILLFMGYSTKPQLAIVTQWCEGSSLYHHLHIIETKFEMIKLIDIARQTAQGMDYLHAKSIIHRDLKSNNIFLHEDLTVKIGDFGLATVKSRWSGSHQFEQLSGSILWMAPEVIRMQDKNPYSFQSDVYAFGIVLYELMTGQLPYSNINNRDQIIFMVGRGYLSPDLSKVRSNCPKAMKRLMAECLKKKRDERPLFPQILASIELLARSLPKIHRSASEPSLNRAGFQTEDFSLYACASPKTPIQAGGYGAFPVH
Sequence of TIE-2 (Q02763 23-1124): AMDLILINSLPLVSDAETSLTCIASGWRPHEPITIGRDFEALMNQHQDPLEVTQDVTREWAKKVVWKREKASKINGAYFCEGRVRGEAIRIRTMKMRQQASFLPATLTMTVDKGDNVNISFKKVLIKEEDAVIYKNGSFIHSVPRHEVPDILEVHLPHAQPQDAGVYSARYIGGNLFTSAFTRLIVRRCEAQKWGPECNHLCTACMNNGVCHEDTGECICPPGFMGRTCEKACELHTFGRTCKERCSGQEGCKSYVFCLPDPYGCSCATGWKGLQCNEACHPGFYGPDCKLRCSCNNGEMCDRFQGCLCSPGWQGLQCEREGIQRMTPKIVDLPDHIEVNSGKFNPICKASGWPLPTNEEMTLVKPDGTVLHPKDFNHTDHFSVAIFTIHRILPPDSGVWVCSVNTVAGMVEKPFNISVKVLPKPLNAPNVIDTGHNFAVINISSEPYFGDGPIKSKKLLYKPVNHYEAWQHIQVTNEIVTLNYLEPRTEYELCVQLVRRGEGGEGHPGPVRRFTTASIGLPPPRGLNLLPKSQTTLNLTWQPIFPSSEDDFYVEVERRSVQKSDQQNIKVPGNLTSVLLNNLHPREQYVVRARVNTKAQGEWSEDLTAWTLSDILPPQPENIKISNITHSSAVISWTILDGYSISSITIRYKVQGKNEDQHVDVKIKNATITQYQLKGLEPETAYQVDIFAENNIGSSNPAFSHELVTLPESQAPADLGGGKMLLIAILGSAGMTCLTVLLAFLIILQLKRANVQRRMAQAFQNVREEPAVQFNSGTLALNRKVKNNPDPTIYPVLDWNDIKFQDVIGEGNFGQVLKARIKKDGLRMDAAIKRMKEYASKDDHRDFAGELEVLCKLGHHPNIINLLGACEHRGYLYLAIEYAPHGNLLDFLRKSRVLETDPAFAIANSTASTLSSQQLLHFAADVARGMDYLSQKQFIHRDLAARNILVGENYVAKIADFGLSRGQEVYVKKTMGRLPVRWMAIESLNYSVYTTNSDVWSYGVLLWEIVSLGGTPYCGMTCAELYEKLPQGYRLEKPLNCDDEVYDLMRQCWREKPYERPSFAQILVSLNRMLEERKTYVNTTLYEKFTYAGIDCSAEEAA
Sequence of VEGFR-1 (P17948 27-1338, species assumed): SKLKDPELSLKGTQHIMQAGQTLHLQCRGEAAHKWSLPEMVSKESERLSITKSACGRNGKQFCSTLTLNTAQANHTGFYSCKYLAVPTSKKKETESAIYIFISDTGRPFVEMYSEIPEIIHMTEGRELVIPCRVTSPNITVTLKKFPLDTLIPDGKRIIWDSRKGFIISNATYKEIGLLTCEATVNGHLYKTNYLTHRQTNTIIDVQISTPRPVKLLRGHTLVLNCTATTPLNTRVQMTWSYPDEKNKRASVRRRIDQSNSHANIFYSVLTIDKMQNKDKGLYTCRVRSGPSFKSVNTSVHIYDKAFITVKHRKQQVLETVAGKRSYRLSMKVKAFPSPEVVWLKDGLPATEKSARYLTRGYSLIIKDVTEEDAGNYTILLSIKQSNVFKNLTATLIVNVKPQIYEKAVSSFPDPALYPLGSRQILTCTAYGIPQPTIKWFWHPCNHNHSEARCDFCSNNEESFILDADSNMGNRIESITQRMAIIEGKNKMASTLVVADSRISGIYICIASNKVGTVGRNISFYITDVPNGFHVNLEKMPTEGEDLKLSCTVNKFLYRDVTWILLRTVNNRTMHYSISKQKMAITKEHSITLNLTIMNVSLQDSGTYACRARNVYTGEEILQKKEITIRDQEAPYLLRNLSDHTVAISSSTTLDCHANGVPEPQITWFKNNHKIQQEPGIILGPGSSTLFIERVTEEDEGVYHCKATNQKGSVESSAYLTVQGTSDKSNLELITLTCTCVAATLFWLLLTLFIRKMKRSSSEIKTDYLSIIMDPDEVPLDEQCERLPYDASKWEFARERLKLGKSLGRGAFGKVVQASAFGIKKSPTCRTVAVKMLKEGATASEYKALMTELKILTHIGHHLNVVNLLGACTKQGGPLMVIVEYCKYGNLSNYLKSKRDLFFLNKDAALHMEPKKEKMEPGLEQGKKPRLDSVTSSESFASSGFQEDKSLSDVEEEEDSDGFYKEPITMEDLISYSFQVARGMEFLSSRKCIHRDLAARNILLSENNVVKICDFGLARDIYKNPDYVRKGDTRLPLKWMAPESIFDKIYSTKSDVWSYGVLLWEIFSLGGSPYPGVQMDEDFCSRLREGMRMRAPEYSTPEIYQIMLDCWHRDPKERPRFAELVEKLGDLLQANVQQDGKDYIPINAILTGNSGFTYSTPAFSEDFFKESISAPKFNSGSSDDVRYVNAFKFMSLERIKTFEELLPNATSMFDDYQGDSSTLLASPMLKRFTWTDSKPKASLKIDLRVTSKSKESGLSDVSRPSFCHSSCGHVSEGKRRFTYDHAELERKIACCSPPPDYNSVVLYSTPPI

- IC50 (VEGFR-1): 0.192 µM
- IC50 [1]: 24.9 µM
- Direct competitive assay on VEGFR-2/CMC (change in K' of multi-target RTK inhibitors) (VEGFR-2 [2]; QDAU5 at increasing concentrations in the mobile phase): interacted with the same site of VEGFR-2
- Retention time on VEGFR-2/cell membrane stationary phase column (VEGFR-2 [2]; flow rate 0.6 mL/min, 37°C, 5 mM PBS pH 7.4, 270 nm): 38 min and 38.0 min
- IC50 [3]: 4.99 µM
- IC50 [4]: 8.37 µM
- IC50 [6]: 16.9 µM
- IC50 (c-Kit): 0.142 µM
- IC50 (VEGFR-2 [7]): 0.00077 µM
- IC50 (TIE-2): 0.00887 µM
- IC50 (B-Raf): > 0.5 µM
- IC50 [8]: 58.7 µM
Structure (SMILES): O=C(Nc1ccc(-c2ccc3c(=O)[nH]cnc3c2)cc1)Nc1ccc(F)c(F)c1 [QDAU5, 1-(3,4-difluorophenyl)-3-(4-(4-oxo-3,4-dihydroquinazolin-7-yl)phenyl)urea]
- IC50 [5]: > 100 µM
- Final body weight (MCF-7 xenograft; 20 mg/kg daily): 17.4 ± 1.0 g
- Tumor growth inhibition (MCF-7 xenograft; 20 mg/kg daily): 7.2%
- Final tumor weight (MCF-7 xenograft; 20 mg/kg daily): 0.787 ± 0.7 g
- Initial body weight (MCF-7 xenograft; 20 mg/kg): 18.7 ± 0.8 g
- Final body weight (MCF-7 xenograft; 40 mg/kg daily): 18.9 ± 1.2 g
- Tumor growth inhibition (MCF-7 xenograft; 40 mg/kg daily, 40 mg/kg): 24%
- Final tumor weight (MCF-7 xenograft; 40 mg/kg daily): 0.642 ± 0.8 g
- Initial body weight (MCF-7 xenograft; 40 mg/kg): 18.4 ± 0.6 g
- Final body weight (MCF-7 xenograft; 80 mg/kg daily): 16.1 ± 1.0 g
- Tumor growth inhibition (MCF-7 xenograft; 80 mg/kg daily, 80 mg/kg): 47%
- Final tumor weight (MCF-7 xenograft; 80 mg/kg daily): 0.449 ± 0.9 g
- Initial body weight (MCF-7 xenograft; 80 mg/kg): 18.3 ± 0.7 g
- IC50 [9]: > 100 µM
